1 compound from ChEMBL document CHEMBL4303773 (Nature, 2020) can be followed below.

Structures are written as SMILES.

The test system of one data set is Vero C1008. The data set can be described thus: Cytotoxicity of compound against Vero E6 cells by MTT assay. The following applies: chlorocebus sabaeus, vero c1008. (In general: Tetrazolium assays rely on reduction of a dye to a coloured formazan, in cell work by metabolically active cells.)
The target in data set [1] is T1, Alpha-2C adrenergic receptor (Homo sapiens, UniProt P18825).
T1 sequence (P18825 whole entry): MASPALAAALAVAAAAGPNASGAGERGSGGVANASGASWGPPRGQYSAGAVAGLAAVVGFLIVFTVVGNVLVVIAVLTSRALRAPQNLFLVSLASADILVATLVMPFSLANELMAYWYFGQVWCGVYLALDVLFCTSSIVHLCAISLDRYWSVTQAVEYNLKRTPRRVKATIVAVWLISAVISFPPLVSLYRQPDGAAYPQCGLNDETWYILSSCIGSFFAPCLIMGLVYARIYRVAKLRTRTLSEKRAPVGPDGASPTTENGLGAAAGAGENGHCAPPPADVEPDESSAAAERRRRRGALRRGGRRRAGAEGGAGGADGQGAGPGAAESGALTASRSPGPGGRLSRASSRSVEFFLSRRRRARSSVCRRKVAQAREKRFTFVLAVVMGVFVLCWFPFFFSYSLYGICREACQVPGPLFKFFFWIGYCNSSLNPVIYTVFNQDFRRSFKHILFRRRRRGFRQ
Description: Activity of compound against Alpha 2C (ADRA2C) adrenergic receptor by displacement of [3H]-rauwolscine

For data set [2], the target named is Sigma intracellular receptor 2 (Homo sapiens, UniProt Q5BJF2). The experiment in a line: Displacement of [3H]-DTG from the Sigma2 receptor.
Data set [3] concerns the target T2, Alpha-2B adrenergic receptor (Homo sapiens, UniProt P18089).
T2 sequence (P18089 whole entry): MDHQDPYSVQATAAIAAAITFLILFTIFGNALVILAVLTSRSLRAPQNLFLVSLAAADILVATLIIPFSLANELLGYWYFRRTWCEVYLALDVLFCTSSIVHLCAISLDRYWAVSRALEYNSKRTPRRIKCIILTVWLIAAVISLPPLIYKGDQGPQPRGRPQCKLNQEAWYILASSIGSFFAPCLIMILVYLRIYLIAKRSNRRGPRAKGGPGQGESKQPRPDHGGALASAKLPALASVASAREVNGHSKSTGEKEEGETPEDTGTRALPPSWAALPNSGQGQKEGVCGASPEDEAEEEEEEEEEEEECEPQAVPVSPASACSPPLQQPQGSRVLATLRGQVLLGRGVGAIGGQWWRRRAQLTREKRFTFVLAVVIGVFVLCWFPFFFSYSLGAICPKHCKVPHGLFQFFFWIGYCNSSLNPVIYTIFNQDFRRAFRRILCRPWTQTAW

Data set [4] has as its target T3, Muscarinic acetylcholine receptor M2 (Homo sapiens, UniProt P08172).
T3 sequence (P08172 whole entry): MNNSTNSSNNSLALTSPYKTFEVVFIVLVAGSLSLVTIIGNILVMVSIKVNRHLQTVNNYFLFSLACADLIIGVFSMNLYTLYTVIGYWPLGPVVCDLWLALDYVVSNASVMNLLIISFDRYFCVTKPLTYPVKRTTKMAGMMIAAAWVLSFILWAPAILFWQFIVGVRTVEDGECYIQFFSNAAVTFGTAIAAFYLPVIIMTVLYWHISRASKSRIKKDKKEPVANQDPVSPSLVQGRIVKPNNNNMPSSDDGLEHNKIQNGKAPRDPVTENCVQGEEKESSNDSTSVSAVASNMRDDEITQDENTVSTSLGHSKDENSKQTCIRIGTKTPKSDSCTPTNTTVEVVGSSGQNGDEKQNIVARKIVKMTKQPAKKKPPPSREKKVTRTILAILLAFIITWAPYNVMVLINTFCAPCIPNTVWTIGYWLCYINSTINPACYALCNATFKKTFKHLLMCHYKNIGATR
The data set can be described thus: Activity of compound against Muscarinic acetylcholine receptor M2 (CHRM2) by displacement of 3H-QNB.

Data set [5] addresses T4, Muscarinic acetylcholine receptor M4 (Homo sapiens, UniProt P08173).
T4 sequence (P08173 whole entry): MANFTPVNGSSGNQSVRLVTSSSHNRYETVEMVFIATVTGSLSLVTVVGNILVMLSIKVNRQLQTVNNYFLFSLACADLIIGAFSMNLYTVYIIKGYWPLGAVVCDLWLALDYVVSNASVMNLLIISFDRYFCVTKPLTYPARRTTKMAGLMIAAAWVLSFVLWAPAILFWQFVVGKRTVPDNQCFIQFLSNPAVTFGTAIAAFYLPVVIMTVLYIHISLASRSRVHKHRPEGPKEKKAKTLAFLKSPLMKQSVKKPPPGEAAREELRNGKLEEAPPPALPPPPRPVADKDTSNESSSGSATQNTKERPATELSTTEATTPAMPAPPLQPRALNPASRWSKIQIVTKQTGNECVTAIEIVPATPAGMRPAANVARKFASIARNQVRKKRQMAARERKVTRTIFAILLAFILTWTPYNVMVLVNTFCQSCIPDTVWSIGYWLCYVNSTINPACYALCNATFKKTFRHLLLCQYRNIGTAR
The experiment in a line: Activity of compound against Muscarinic acetylcholine receptor M4 (CHRM4) by displacement of 3H-QNB. Background: Displacement assays read how much labelled ligand stays bound in the presence of the test substance.

Data set [6] deals with T5, Muscarinic acetylcholine receptor M5 (Homo sapiens, UniProt P08912).
T5 sequence (P08912 whole entry): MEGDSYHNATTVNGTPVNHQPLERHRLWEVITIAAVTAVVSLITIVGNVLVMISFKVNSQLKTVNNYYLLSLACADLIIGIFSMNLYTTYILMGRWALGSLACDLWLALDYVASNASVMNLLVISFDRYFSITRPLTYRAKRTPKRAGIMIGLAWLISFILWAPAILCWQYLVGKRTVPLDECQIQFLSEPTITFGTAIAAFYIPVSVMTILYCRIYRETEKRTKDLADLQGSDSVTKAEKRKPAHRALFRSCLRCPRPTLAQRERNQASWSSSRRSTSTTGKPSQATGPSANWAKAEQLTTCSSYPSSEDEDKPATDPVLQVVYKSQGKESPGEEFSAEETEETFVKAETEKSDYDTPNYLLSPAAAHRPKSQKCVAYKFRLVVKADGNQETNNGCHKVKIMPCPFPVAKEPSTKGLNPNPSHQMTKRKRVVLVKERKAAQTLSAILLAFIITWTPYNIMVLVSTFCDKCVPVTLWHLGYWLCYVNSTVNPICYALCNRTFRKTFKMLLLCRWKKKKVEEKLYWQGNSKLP
The data set can be described thus: Activity of compound against Muscarinic acetylcholine receptor M5 (CHRM5) by displacement of 3H-QNB.

Chain of Sigma intracellular receptor 2 (Q5BJF2 whole entry): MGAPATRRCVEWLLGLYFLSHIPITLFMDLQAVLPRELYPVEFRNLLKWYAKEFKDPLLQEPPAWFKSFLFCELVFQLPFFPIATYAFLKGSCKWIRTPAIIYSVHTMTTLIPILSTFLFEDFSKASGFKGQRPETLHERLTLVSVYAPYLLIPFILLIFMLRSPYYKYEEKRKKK

`CCCN1CCC=C(c2cc(-c3ccc(C)cc3)no2)C1`: in the data set with Vero C1008, the pCC50 is reported as ~ 2.928. The Ki in data set [1] is 10 µM; in data set [2], 0.794 µM; in data set [3], 20.4 µM; in data set [4], 24 µM; in data set [5], 24.5 µM; in data set [6], 28.2 µM.

Broadly, the Ki is the equilibrium dissociation constant of an inhibitor or competing ligand from its target.
